Results: patent publication US11548870B2, “Compounds useful as inhibitors of helios protein” (Bristol-Myers Squibb Company, priority 2019, dated 2023)
Like-named read-outs stand apart in the source and are kept apart here.

Columns and labels:
[1] = molecular target: T1, Helios (Homo sapiens, UniProt Q96SW2+Q9UKS7); assay: Helios Cellular Degradation Assay (flow cytometry, Helios-PE antibody staining, 72 h); format: cell-based; conditions: for Dmax: Jurkat, read-out: Helios Dmax
T1 construct: fluorescently labelled antibodies against Helios and Ikaros; endogenous in cells; host or cells: Jurkat cells
Summary of the method: (§1)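 Jurkat cells (80,000/well, RPMI+10% FBS) were exposed to compound for 72 h at 37 °C, then fixed, permeabilized and co-stained for 1 h with Ikaros-Alexa488 and Helios-PE antibodies. Intracellular protein levels were read by flow cytometry.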

[2] = molecular target: T2, Ikaros (Homo sapiens, UniProt Q13422); assay: Helios Cellular Degradation Assay, Ikaros readout (flow cytometry, Ikaros-Alexa488 antibody staining, 72 h); format: cell-based; conditions: Jurkat cells, 72 h incubation, flow cytometry; for Dmax: Jurkat, read-out: Ikaros Dmax
T2 construct: fluorescently labelled antibodies against Helios and Ikaros; endogenous in cells; host or cells: Jurkat cells
Summary of the method: as §1

[3] = Jurkat cells, 72 h incubation, flow cytometry

T1 sequence (Q9UKS7 whole entry): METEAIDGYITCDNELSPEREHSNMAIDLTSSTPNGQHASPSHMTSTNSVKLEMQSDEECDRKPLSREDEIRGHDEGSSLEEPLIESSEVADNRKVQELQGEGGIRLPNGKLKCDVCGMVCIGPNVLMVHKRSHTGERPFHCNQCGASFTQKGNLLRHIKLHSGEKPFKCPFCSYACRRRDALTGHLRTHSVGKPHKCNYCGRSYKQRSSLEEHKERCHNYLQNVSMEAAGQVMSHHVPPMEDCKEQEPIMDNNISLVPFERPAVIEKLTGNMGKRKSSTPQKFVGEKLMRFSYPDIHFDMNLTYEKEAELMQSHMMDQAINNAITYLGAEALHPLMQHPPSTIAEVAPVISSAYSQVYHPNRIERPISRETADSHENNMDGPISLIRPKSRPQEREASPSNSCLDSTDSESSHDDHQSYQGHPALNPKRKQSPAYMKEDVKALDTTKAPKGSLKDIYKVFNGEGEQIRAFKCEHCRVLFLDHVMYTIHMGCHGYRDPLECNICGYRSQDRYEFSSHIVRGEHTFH
T1 sequence (Q96SW2 whole entry): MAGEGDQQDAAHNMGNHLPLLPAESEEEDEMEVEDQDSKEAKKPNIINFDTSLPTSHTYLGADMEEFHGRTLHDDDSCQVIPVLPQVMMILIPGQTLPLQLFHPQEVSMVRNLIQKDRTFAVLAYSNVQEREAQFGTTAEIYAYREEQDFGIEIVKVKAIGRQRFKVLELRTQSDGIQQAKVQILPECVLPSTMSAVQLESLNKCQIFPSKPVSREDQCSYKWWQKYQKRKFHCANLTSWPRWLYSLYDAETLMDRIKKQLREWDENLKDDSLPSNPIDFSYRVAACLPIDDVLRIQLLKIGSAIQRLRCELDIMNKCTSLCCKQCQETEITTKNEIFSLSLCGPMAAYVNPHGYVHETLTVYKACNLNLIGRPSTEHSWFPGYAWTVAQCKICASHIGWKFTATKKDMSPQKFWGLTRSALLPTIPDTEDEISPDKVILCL
T1 sequence (Q16531 whole entry partner): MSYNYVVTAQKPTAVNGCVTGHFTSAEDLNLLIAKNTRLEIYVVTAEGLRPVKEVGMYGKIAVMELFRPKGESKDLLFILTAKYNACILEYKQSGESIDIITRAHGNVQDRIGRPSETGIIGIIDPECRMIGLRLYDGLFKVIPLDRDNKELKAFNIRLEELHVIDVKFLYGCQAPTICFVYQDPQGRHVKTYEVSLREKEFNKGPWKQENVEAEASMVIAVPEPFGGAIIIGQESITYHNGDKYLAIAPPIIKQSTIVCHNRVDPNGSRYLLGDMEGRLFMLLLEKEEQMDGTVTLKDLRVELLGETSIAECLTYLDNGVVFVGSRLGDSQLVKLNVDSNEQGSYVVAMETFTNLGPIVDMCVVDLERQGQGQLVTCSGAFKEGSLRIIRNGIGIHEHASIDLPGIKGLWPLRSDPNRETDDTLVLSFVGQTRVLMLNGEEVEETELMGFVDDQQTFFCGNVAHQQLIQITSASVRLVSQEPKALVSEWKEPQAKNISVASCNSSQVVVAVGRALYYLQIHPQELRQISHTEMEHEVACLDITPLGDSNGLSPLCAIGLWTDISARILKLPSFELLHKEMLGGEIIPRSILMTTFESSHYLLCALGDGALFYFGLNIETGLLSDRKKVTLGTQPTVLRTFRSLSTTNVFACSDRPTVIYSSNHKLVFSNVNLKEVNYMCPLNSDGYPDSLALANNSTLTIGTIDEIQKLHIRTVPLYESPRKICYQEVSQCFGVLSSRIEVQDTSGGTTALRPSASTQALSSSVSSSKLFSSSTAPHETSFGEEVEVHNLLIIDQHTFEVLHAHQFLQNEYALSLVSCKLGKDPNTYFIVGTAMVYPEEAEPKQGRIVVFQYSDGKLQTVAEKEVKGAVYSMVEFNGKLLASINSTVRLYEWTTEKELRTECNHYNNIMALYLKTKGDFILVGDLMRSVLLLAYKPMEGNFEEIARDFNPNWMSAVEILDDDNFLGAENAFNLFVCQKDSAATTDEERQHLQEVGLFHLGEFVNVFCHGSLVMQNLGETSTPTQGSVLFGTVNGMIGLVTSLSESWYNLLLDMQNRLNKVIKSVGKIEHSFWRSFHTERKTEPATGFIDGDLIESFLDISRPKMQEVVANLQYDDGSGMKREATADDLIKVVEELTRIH
T2 sequence (Q96SW2 whole entry partner): as the sequence (Q96SW2 whole entry) above
T2 sequence (Q16531 whole entry partner): as the sequence (Q16531 whole entry partner) above
T2 sequence (Q13422 whole entry): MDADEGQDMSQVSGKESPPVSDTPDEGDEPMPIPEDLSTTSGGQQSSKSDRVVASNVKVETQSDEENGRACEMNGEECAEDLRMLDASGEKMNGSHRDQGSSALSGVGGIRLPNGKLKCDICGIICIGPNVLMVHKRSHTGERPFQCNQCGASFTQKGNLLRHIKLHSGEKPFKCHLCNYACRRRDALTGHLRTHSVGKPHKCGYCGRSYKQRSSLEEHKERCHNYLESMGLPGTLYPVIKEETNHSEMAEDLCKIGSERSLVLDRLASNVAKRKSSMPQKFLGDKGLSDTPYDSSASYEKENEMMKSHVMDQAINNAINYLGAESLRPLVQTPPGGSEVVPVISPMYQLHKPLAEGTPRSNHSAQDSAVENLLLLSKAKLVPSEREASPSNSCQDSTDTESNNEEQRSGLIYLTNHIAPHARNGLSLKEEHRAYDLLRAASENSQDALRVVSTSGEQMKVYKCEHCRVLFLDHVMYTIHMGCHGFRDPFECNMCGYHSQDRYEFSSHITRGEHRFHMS

SMILES | DC50 [1, 3] | Dmax [1, 3] | DC50 [2] | Dmax [2] | Dmax [1]
COC(=O)CCNCc1ccnc(-c2ccc3c(c2)CN(C2CCC(=O)NC2=O)C3=O)c1 (centres unmarked) [Example 112, methyl 3-(((2-(2-(2,6-dioxopiperidin-3-yl)-1-oxoisoindolin-5-yl)pyridin-4-yl)methyl)amino)propanoate] | 921 nM | 74% | > 10 µM | 2% | 
O=C1CCC(N2Cc3cc(-c4cc(CNCCCn5ccnc5)ccn4)ccc3C2=O)C(=O)N1 (centres unmarked) [Example 113, 3-(5-(4-(((3-(1H-imidazol-1-yl)propyl)amino)methyl)pyridin-2-yl)-1-oxoisoindolin-2-yl)piperidine-2,6-dione] | 287 nM | 81% | > 10 µM | 8% | 
O=C1CCC(N2Cc3cc(-c4cc(CNCCCN5CCOCC5)ccn4)ccc3C2=O)C(=O)N1 (centres unmarked) [Example 114, 3-(5-(4-(((3-morpholinopropyl)amino)methyl)pyridin-2-yl)-1-oxoisoindolin-2-yl)piperidine-2,6-dione] | 63 nM | 83% | > 10 µM | 2% | 
O=C1CCC(N2Cc3cc(-c4cc(CNCCCN5CCCC5=O)ccn4)ccc3C2=O)C(=O)N1 (centres unmarked) [Example 115, 3-(1-oxo-5-(4-(((3-(2-oxopyrrolidin-1-yl)propyl)amino)methyl)pyridin-2-yl)isoindolin-2-yl)piperidine-2,6-dione] | 528 nM | 78% | > 10 µM | 6% | 
CCNCc1ccnc(-c2ccc3c(c2)CN(C2CCC(=O)NC2=O)C3=O)c1 (centres unmarked) [Example 116, 3-(5-(4-((ethylamino)methyl)pyridin-2-yl)-1-oxoisoindolin-2-yl)piperidine-2,6-dione] | 25 nM | 88% | > 10 µM | 12% | 
CC1(C)CCCN1Cc1ccnc(-c2ccc3c(c2)CN(C2CCC(=O)NC2=O)C3=O)c1 (centres unmarked) [Example 117, 3-(5-(4-((2,2-dimethylpyrrolidin-1-yl)methyl)pyridin-2-yl)-1-oxoisoindolin-2-yl)piperidine-2,6-dione] | 53 nM | 77% | > 10 µM | 3% | 
CC1(C)CCN(Cc2ccnc(-c3ccc4c(c3)CN(C3CCC(=O)NC3=O)C4=O)c2)C1 (centres unmarked) [Example 118, 3-(5-(4-((3,3-dimethylpyrrolidin-1-yl)methyl)pyridin-2-yl)-1-oxoisoindolin-2-yl)piperidine-2,6-dione] | 11 nM | 90% | > 10 µM | 12% | 
CC1CCC(C)N1Cc1ccnc(-c2ccc3c(c2)CN(C2CCC(=O)NC2=O)C3=O)c1 (centres unmarked) [Example 119, 3-(5-(4-((2,5-dimethylpyrrolidin-1-yl)methyl)pyridin-2-yl)-1-oxoisoindolin-2-yl)piperidine-2,6-dione] | 2360 nM | 53% | > 10 µM | 3% | 
C[C@@H]1CCC[C@H](C)N1Cc1ccnc(-c2ccc3c(c2)CN(C2CCC(=O)NC2=O)C3=O)c1 (stereo partly drawn) [Example 120, 3-(5-(4-(((2R,6S)-2,6-dimethylpiperidin-1-yl)methyl)pyridin-2-yl)-1-oxoisoindolin-2-yl)piperidine-2,6-dione] | 85 nM | 84% | > 10 µM | 3% | 
CC1(c2ccc(N)cc2)CCN(Cc2ccnc(-c3ccc4c(c3)CN(C3CCC(=O)NC3=O)C4=O)c2)CC1 (centres unmarked) [Example 121, 3-(5-(4-((4-(4-aminophenyl)-4-methylpiperidin-1-yl)methyl)pyridin-2-yl)-1-oxoisoindolin-2-yl)piperidine-2,6-dione] | 24 nM |  | > 10 µM | 19% | 77%
C[C@@H](NCc1ccnc(-c2ccc3c(c2)CN(C2CCC(=O)NC2=O)C3=O)c1)c1ccccc1 (stereo partly drawn) [Example 122, 3-(1-oxo-5-(4-((((R)-1-phenylethyl)amino)methyl)pyridin-2-yl)isoindolin-2-yl)piperidine-2,6-dione] | 14 nM | 88% | > 10 µM | 4% | 
C[C@H](NCc1ccnc(-c2ccc3c(c2)CN(C2CCC(=O)NC2=O)C3=O)c1)c1ccccc1 (stereo partly drawn) [Example 123, 3-(1-oxo-5-(4-((((S)-1-phenylethyl)amino)methyl)pyridin-2-yl)isoindolin-2-yl) piperidine-2,6-dione] | 7 nM | 92% | > 10 µM | 8% | 
O=C1CCC(N2Cc3cc(-c4cc(CNCC5(O)CCCCC5)ccn4)ccc3C2=O)C(=O)N1 (centres unmarked) [Example 124, 3-(5-(4-((((1-hydroxycyclohexyl)methyl)amino)methyl)pyridin-2-yl)-1-oxoisoindolin-2-yl)piperidine-2,6-dione] | 58 nM | 95% | > 10 µM | 11% | 
C[C@@H]1CCCN1Cc1ccnc(-c2ccc3c(c2)CN(C2CCC(=O)NC2=O)C3=O)c1 (stereo partly drawn) [Example 125, 3-(5-(4-(((R)-2-methylpyrrolidin-1-yl)methyl)pyridin-2-yl)-1-oxoisoindolin-2-yl) piperidine-2,6-dione] | 16 nM | 93% | > 10 µM | 8% | 
CC1CC(NCc2ccnc(-c3ccc4c(c3)CN(C3CCC(=O)NC3=O)C4=O)c2)CCO1 (centres unmarked) [Example 126, 3-(5-(4-(((2-methyltetrahydro-2H-pyran-4-yl)amino)methyl)pyridin-2-yl)-1-oxoisoindolin-2-yl) piperidine-2,6-dione] | 82 nM | 99% | > 10 µM | 22% | 
O=C1CCC(N2Cc3cc(-c4cc(CN5CCC6(CC5)CC6)ccn4)ccc3C2=O)C(=O)N1 (centres unmarked) [Example 127, 3-(5-(4-((6-azaspiro[2.5]octan-6-yl)methyl)pyridin-2-yl)-1-oxoisoindolin-2-yl)piperidine-2,6-dione] | 35 nM | 84% | > 10 µM | 6% | 
O=C1CCC(N2Cc3cc(-c4cc(CNCCCCO)ccn4)ccc3C2=O)C(=O)N1 (centres unmarked) [Example 128, 3-(5-(4-(((4-hydroxybutyl)amino)methyl)pyridin-2-yl)-1-oxoisoindolin-2-yl)piperidine-2,6-dione] | 93 nM | 94% | > 10 µM | 28% | 
O=C1CCC(N2Cc3cc(-c4cc(CNCC5CCO5)ccn4)ccc3C2=O)C(=O)N1 (centres unmarked) [Example 129, 3-(5-(4-(((oxetan-2-ylmethyl)amino)methyl)pyridin-2-yl)-1-oxoisoindolin-2-yl)piperidine-2,6-dione] | 232 nM | 74% | > 10 µM | 2% | 
CC(C)OC1CN(Cc2ccnc(-c3ccc4c(c3)CN(C3CCC(=O)NC3=O)C4=O)c2)C1 (centres unmarked) [Example 130, 3-(5-(4-((3-isopropoxyazetidin-1-yl)methyl)pyridin-2-yl)-1-oxoisoindolin-2-yl)piperidine-2,6-dione] | 244 nM | 56% | > 10 µM | 13% | 
O=C1CCC(N2Cc3cc(-c4cc(CN[C@H](CCO)c5ccccc5)ccn4)ccc3C2=O)C(=O)N1 (stereo partly drawn) [Example 131, 3-(5-(4-((((R)-3-hydroxy-1-phenylpropyl)amino)methyl)pyridin-2-yl)-1-oxoisoindolin-2-yl)piperidine-2,6-dione] | 14 nM | 83% | > 10 µM | 9% | 
Cc1ccc(S(=O)(=O)C2CCN(Cc3ccnc(-c4ccc5c(c4)CN(C4CCC(=O)NC4=O)C5=O)c3)CC2)cc1 (centres unmarked) [Example 132, 3-(1-oxo-5-(4-((4-tosylpiperidin-1-yl)methyl)pyridin-2-yl)isoindolin-2-yl)piperidine-2,6-dione] | > 10000 nM | 28% | > 10 µM | 13% | 
O=C1CCC(N2Cc3cc(-c4cc(CN5CCC[C@H]5c5ccccc5)ccn4)ccc3C2=O)C(=O)N1 (stereo partly drawn) [Example 133, 3-(1-oxo-5-(4-(((S)-2-phenylpyrrolidin-1-yl)methyl)pyridin-2-yl)isoindolin-2-yl)piperidine-2,6-dione] | 75 nM | 84% | > 10 µM | 7% | 
O=C1CCC(N2Cc3cc(-c4cc(CN5CCC[C@@H]5c5ccccc5)ccn4)ccc3C2=O)C(=O)N1 (stereo partly drawn) [Example 134, 3-(1-oxo-5-(4-(((R)-2-phenylpyrrolidin-1-yl)methyl)pyridin-2-yl)isoindolin-2-yl)piperidine-2,6-dione] | 16 nM | 95% | > 10 µM | 19% | 
O=C1CCC(N2Cc3cc(-c4cc(CN5CCC[C@@H](c6ccccc6)C5)ccn4)ccc3C2=O)C(=O)N1 (stereo partly drawn) [Example 135, 3-(1-oxo-5-(4-(((S)-3-phenylpiperidin-1-yl)methyl)pyridin-2-yl)isoindolin-2-yl)piperidine-2,6-dione] | 1310 nM | 60% | > 10 µM | 4% | 
C[C@@H](c1ccccc1)N(C)Cc1ccnc(-c2ccc3c(c2)CN(C2CCC(=O)NC2=O)C3=O)c1 (stereo partly drawn) [Example 136, 3-(5-(4-((methyl((S)-1-phenylethyl)amino)methyl)pyridin-2-yl)-1-oxoisoindolin-2-yl)piperidine-2,6-dione] | 84 nM | 62% | > 10 µM | 0% | 
C[C@H](c1ccccc1)N(C)Cc1ccnc(-c2ccc3c(c2)CN(C2CCC(=O)NC2=O)C3=O)c1 (stereo partly drawn) [Example 137, 3-(5-(4-((methyl((R)-1-phenylethyl)amino)methyl)pyridin-2-yl)-1-oxoisoindolin-2-yl)piperidine-2,6-dione] | 98 nM | 67% | > 10 µM | 8% | 
